In PubChem BioAssay (NCI) one finds TGI data, which are given here for eleven compounds.

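Briefly, cells in 96-well plates were exposed to five compound concentrations for 48 h, and endpoints were estimated by linear interpolation. TGI: total growth inhibition.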

Common to all, as to assay: inhibition of tumour cell growth, NCI panel, 48 h
In assay [1] the test system is HCT-15 colon.
Assay [2] concerns HL-60(TB) leukemia.
Assay [3] has as its system LOX IMVI melanoma.
The test system of assay [4] is MALME-3M melanoma.
The subject of assay [5] is NCI-H522 lung.
In assay [6] the test system is OVCAR-4 ovarian.
Assay [7] has as its system OVCAR-8 ovarian.
Assay [8] concerns SF-295 CNS.
Assay [9] concerns SK-MEL-5 melanoma.
Assay [10] concerns UACC-257 melanoma.

On to `O=C(Nc1ccccc1)N1CCN(C(=O)Nc2ccccc2)C1=S`, for which the TGI in assay [1], in [2], in assay [3], in assay [4], in [5] and in assay [6] was greater than 100 µM throughout. For the same compound, the TGI in [7] was greater than 100 µM; in assay [8], 58.4 µM; in [9], greater than 100 µM; in assay [10], greater than 100 µM.

`Cc1nc(NC(C)(CO)CO)nc(N/N=C/c2ccc(Cl)cc2)c1C(=O)Nc1ccc(Cl)cc1`: the TGI in assay [1], in assay [2], in [3], in assay [4], in assay [5] and in assay [6] was greater than 100 µM throughout. The TGI in assay [7], in assay [8] and in assay [10] was greater than 100 µM throughout.

With `C=C1c2nc3ccccc3n2C=C(c2ccc(C)cc2)N1c1ccc(OC)cc1`, the TGI was greater than 100 µM in assay [1]; 55.6 µM in [2]; greater than 100 µM in assay [3]; greater than 100 µM in assay [4]; greater than 77.7 µM in assay [5]; greater than 100 µM in assay [6]. Moreover, the TGI in [7], in [8], in assay [9] and in [10] was greater than 100 µM each time.

Consider `O=C(O)C(Cc1ccccc1)NCc1c(O)ccc2c(-c3ccccc3)cc(=O)oc12` (configuration not stated), for which the TGI in assay [1], in [2], in assay [3], in assay [4], in [5] and in [6] was greater than 100 µM in each case. Further, the TGI in assay [7], in assay [8], in assay [9] and in [10] was greater than 100 µM each time.

Regarding `Nc1c(C(=O)c2ccc(Cl)c(Cl)c2)[nH]c(NCc2ccccc2)c1C(=S)Nc1ccccc1`, the TGI in assay [1] came out at 6.27 µM; in assay [2], 38.4 µM; in assay [3], 4.53 µM; in [4], 11.7 µM; in [5] it was 17.7 µM; in [6], 15.8 µM. For the same compound, the figures for the TGI in assay [7], in [8] and in assay [10] were 30.2 µM, 15 µM and 30.5 µM, respectively.

With `CC1=C(C)C(=O)C(C2=CC(=O)c3ccccc3C2=O)=C(C2=CC(=O)c3ccccc3C2=O)C1=O`, the TGI in assay [1] was greater than 100 µM; in [2], 12.3 µM; in assay [3], greater than 21.2 µM; in assay [4], 4.33 µM; in [5], 17.4 µM; in assay [6], 42.8 µM. Further, the TGI in assay [7] is greater than 62.3 µM; in assay [8], greater than 55.2 µM; in assay [10] it was 28.6 µM.

For the compound `O=c1c2cc(Br)cc(Br)c2[nH]c(=S)n1-c1ccc(N=Nc2ccc(O)c3cccnc23)cc1`, the TGI in assay [2] is greater than 100 µM; in assay [3], greater than 100 µM; in assay [4], 43.2 µM; in [5], 60.8 µM; in [6] it was greater than 100 µM; in assay [7] it was greater than 100 µM. Further, the TGI in [8] was greater than 100 µM; in assay [9], 29 µM; in [10], greater than 100 µM.

On to `O=[N+]([O-])c1ccc(-n2nc3ccc4nonc4c3n2)cc1`, for which the TGI in assay [1] is greater than 100 µM; in assay [2], greater than 100 µM; in [3], greater than 100 µM; in assay [4] it was 89.2 µM; in [5], greater than 100 µM; in assay [6] it was 47 µM. The TGI in assay [8] is 87.9 µM; in assay [9], greater than 100 µM; in assay [10], greater than 100 µM.

Consider `NC(=O)CCC(N=c1c2ccccc2n(O)c2ccccc12)C(=O)O` (configuration not stated), for which the TGI in [1], in [2], in assay [3], in assay [4], in [5] and in assay [6] was greater than 100 µM throughout. The TGI in assay [7], in assay [8] and in [9] was greater than 100 µM in each case.

In the case of `ClC1=NN=C(c2c[nH]c3ccccc23)CC1NCc1ccccc1` (configuration not stated), the TGI in [1], in assay [2], in assay [3], in assay [4], in assay [5] and in assay [7] was greater than 100 µM in each case. For the same compound, the TGI in assay [8], in assay [9] and in assay [10] was greater than 100 µM throughout.

Regarding `N[C@@H](CCC(=O)NC(Cc1ccccc1)C(=O)NCP(=O)(O)O)C(=O)O` (some centres not stated), the TGI in assay [1], in assay [2], in [3], in assay [4], in [5] and in assay [7] was greater than 100 µM throughout. Moreover, the TGI in assay [8], in assay [9] and in [10] was greater than 100 µM throughout.
